Bounds are passed on as bounds.

The target in assay [1] is T1, recombinant METTL3/METTL14 complex (Homo sapiens, UniProt Q86U44).
T1 construct: purchased Active Motif 311970; host or cells: Sf9 cells
In words: METTL3/14 Scintillation Proximity Assay (SPA), RNA methyltransferase activity. Type of assay: biochemical. Particulars: 5.31 nM METTL3/14 complex, 250 nM RNA substrate, 1 μM 3H-SAM, 90 min; for compounds marked * best of the two separated forms. For orientation: Scintillation proximity formats need no separation of bound from free tracer.

The next assay deals with Caov-3 cells. In words: Caov-3 cellular viability assay (ATP-Lite, 72 h). Type of assay: cell-based. The settings on record: Homo sapiens, ATP-Lite luminescence, % viability relative to DMSO. The procedure, abridged: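 10000 cells/well treated 72 h at 37 °C, 5% CO2, in RPMI-1640 with 10% FBS and 0.1% DMSO final. Viability by ATP-Lite One Step luminescence. Expressed as % of DMSO control, with IC50 from each compound's concentration-response curve.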

In another assay the test system is Kasumi-1 cells. In words: Kasumi-1 cellular viability assay (ATP-Lite, 72 h). Type of assay: cell-based. Particulars: Homo sapiens, ATP-Lite luminescence, % viability relative to DMSO. In a few lines:
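Kasumi-1 AML cells, 15000/well in RPMI-1640 with 10% FBS, were exposed to compound titrations (0.1% final DMSO) for 72 h at 37 °C, 5% CO2. ATP-Lite One Step luminescence gave % viability versus DMSO control, and IC50 came from the concentration-response.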

T1 sequence (Q86U44 whole entry): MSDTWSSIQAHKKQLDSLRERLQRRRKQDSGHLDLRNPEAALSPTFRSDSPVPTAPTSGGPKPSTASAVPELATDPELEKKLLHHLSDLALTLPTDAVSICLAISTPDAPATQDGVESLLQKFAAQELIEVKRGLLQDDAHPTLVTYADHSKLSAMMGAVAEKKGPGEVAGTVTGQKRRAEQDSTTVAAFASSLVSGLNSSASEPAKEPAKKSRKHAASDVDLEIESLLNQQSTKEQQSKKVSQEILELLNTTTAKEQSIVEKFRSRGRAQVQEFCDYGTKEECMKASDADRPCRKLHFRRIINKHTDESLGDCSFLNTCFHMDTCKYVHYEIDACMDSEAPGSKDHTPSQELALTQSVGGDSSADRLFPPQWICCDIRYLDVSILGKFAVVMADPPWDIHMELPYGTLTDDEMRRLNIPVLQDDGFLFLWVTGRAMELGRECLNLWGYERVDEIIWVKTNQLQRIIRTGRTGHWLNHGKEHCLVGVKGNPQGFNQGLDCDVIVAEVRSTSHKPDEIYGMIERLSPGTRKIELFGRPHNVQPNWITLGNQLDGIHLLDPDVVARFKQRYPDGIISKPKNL
T1 sequence (Q9HCE5 whole entry partner): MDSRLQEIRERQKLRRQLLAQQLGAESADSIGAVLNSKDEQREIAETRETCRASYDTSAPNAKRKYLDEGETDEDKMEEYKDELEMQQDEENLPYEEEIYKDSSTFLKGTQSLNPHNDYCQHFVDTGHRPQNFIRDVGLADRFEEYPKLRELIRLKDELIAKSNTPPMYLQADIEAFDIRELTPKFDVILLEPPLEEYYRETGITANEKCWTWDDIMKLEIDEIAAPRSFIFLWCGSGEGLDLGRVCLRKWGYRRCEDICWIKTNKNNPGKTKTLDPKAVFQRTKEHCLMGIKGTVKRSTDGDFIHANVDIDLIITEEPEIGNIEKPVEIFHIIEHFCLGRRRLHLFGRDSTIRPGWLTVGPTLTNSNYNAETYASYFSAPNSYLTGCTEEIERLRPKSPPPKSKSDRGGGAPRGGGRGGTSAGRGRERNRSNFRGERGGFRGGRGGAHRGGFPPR

As a reminder, the IC50 is the midpoint of a concentration-inhibition curve. On to `c1cc(N2CCC[C@@H](NCC3CC3)C2)ncc1C1(n2cc(-c3cncc(N4CCCC4)n3)nn2)COC1` [Compound 207, (R)-N-(cyclopropylmethyl)-1-(5-(3-(4-(6-(pyrrolidin-1-yl)pyrazin-2-yl)-1H-1,2,3-triazol-1-yl)oxetan-3-yl)pyridin-2-yl)piperidin-3-amine], for which the IC50 in assay [1] was ≤ 0.05 µM; in the assay with Caov-3 cells, ≤ 0.5 µM; in the assay on Kasumi-1 cells, ≤ 0.5 µM.
Consider `O=C(NC(c1ccc(N2CCC[C@@H](NCC3CCC3)C2)nn1)C(F)(F)F)c1cc(=O)n2ccccc2n1` (single isomer, unassigned) [Compound 065], for which the IC50 in assay [1] is ≤ 0.05 µM; in the assay on Caov-3 cells it was 0.5 to 5 µM; in the assay on Kasumi-1 cells, > 5 µM.
As to `COc1cc(-c2cn(Cc3ccc(N4CCC[C@@H](NCC5CCC5)C4)cn3)nn2)c2cn[nH]c2c1` [Compound 042, (R)-N-(cyclobutylmethyl)-1-(6-((4-(6-methoxy-1H-indazol-4-yl)-1H-1,2,3-triazol-1-yl)methyl)pyridin-3-yl)piperidin-3-amine], the IC50 is ≤ 0.05 µM in assay [1], ≤ 0.5 µM with Caov-3 cells and ≤ 0.5 µM in the assay with Kasumi-1 cells.
`CN(C)c1cncc(-c2cn(Cn3ccc(N4CCC[C@@H](NCC5CC5)C4)cc3=O)nn2)c1` [Compound 174, (R)-4-(3-((cyclopropylmethyl)amino)piperidin-1-yl)-1-((4-(5-(dimethylamino)pyridin-3-yl)-1H-1,2,3-triazol-1-yl)methyl)pyridin-2(1H)-one]: the 50% inhibitory concentration (IC50) in assay [1] was ≤ 0.05 µM; with Caov-3 cells, ≤ 0.5 µM; with Kasumi-1 cells, ≤ 0.5 µM.
Take `COc1cncc(-c2cn(C(C)c3ccc(N4CCC[C@@H](NCC5CCC5)C4)nc3)nn2)c1` (single isomer, unassigned) [Compound 071]: the IC50 in assay [1] was ≤ 0.05 µM; in the assay on Caov-3 cells it was 0.5 to 5 µM; in the assay on Kasumi-1 cells, 0.5 to 5 µM.
For the compound `CC(n1cc(-c2cncc(N3CCCC3=O)c2)nn1)n1ccc(N2CCC[C@@H](NCC3CCC3)C2)cc1=O` (single isomer, unassigned) [Compound 159], the figures for the IC50 (in assay [1]; in the assay with Caov-3 cells; with Kasumi-1 cells) were ≤ 0.05 µM, 0.5 to 5 µM and 0.5 to 5 µM, respectively.
Turning to `FC(F)(F)C1(CN[C@@H]2CCCN(c3ccc(C4(n5cc(-c6cncc(C7CC7)c6)nn5)COC4)nc3)C2)CCC1` [Compound 339, (R)-1-(6-(3-(4-(5-cyclopropylpyridin-3-yl)-1H-1,2,3-triazol-1-yl)oxetan-3-yl)pyridin-3-yl)-N-((1-(trifluoromethyl)cyclobutyl)methyl)piperidin-3-amine], the IC50 was ≤ 0.05 µM in assay [1], ≤ 0.5 µM in the assay with Caov-3 cells and 0.5 to 5 µM with Kasumi-1 cells.
Take `FC1(CN[C@@H]2CCCN(c3ccc(C4(n5cc(-c6cncc(C7CC7)c6)nn5)COC4)nc3)C2)CC1` [Compound 332, (R)-1-(6-(3-(4-(5-cyclopropylpyridin-3-yl)-1H-1,2,3-triazol-1-yl)oxetan-3-yl)pyridin-3-yl)-N-((1-fluorocyclopropyl)methyl)piperidin-3-amine]: the half-inhibitory concentration (IC50) is ≤ 0.05 µM in assay [1], ≤ 0.5 µM with Caov-3 cells and ≤ 0.5 µM in the assay on Kasumi-1 cells.
With `O=C(Nc1cncc(C2CCCC2)n1)C1(c2ccc(N3CCC[C@@H](NCC4CCC4)C3)cn2)COC1` [Compound 268, (R)-3-(5-(3-((cyclobutylmethyl)amino)piperidin-1-yl)pyridin-2-yl)-N-(6-cyclopentylpyrazin-2-yl)oxetane-3-carboxamide], the 50% inhibitory concentration (IC50) is ≤ 0.05 µM in assay [1], 0.5 to 5 µM in the assay on Caov-3 cells and 0.5 to 5 µM in the assay on Kasumi-1 cells.
For `COc1cc(-c2cn(Cc3ccc(N4CCCC(N5CCC(C)(C)CC5)C4)nn3)nn2)c2cn[nH]c2c1` (stereo not drawn) [Compound 006, 4-(1-((6-(4,4-dimethyl-[1,3′-bipiperidin]-1′-yl)pyridazin-3-yl)methyl)-1H-1,2,3-triazol-4-yl)-6-methoxy-1H-indazole], the results for the IC50 (in assay [1]; in the assay with Caov-3 cells; in the assay with Kasumi-1 cells) were ≤ 0.05 µM, 0.5 to 5 µM and 0.5 to 5 µM, respectively.
Take `COc1cncc(-c2cn(C(C)n3ncc(N4CCC[C@@H](NCC5CCC5)C4)cc3=O)nn2)c1` (stereo partly drawn) [Compound 067, 5-((R)-3-((cyclobutylmethyl)amino)piperidin-1-yl)-2-(1-(4-(5-methoxypyridin-3-yl)-1H-1,2,3-triazol-1-yl)ethyl)pyridazin-3(2H)-one]: the half-maximal inhibitory concentration (IC50) in assay [1] was ≤ 0.05 µM; with Caov-3 cells it was 0.5 to 5 µM; in the assay on Kasumi-1 cells, 0.5 to 5 µM.
Consider `CC(c1cnn(-c2cncc(N(C)C)c2)c1)n1ccc(N2CCC[C@@H](NCC3CC3)C2)cc1=O` (stereo partly drawn) [Compound 196, 4-((R)-3-((cyclopropylmethyl)amino)piperidin-1-yl)-1-(1-(1-(5-(dimethylamino)pyridin-3-yl)-1H-pyrazol-4-yl)ethyl)pyridin-2(1H)-one], for which the IC50 in assay [1] was ≤ 0.05 µM; with Caov-3 cells, ≤ 0.5 µM; in the assay on Kasumi-1 cells, ≤ 0.5 µM.
Take `CC(n1cc(-c2cncc(N3CCC(F)(F)C3)n2)nn1)n1ccc(N2CCC[C@@H](NCC3CC3)C2)cc1=O` (single isomer, unassigned) [Compound 227]: the IC50 in assay [1] is ≤ 0.05 µM; in the assay with Caov-3 cells, ≤ 0.5 µM; in the assay with Kasumi-1 cells it was ≤ 0.5 µM.
As to `c1ccn(-c2cncc(-c3cn(C4(c5ccc(N6CCC[C@@H](NCC7CCC7)C6)cn5)COC4)nn3)n2)c1` [Compound 295, (R)-1-(6-(3-(4-(6-(1H-pyrrol-1-yl)pyrazin-2-yl)-1H-1,2,3-triazol-1-yl)oxetan-3-yl)pyridin-3-yl)-N-(cyclobutylmethyl)piperidin-3-amine], the values for the IC50 (in assay [1]; in the assay on Caov-3 cells; in the assay on Kasumi-1 cells) were ≤ 0.05 µM, 0.5 to 5 µM and ≤ 0.5 µM, respectively.
With `c1ncc(N2CCCC2)nc1-c1cn(C2(c3ccc(N4CCC[C@@H](NCC5CC5)C4)nn3)COC2)nn1` [Compound 213, (R)-N-(cyclopropylmethyl)-1-(6-(3-(4-(6-(pyrrolidin-1-yl)pyrazin-2-yl)-1H-1,2,3-triazol-1-yl)oxetan-3-yl)pyridazin-3-yl)piperidin-3-amine], the IC50 is ≤ 0.05 µM in assay [1], ≤ 0.5 µM in the assay on Caov-3 cells and ≤ 0.5 µM in the assay on Kasumi-1 cells.
For the compound `CC(c1cnn(-c2cncc(N(C)C)c2)c1)n1ccc(N2CCC[C@@H](NCC3CCC3)C2)cc1=O` (mixture of isomers) [Compound 156, 4-((R)-3-((cyclobutylmethyl)amino)piperidin-1-yl)-1-(1-(1-(5-(dimethylamino)pyridin-3-yl)-1H-pyrazol-4-yl)ethyl)pyridin-2(1H)-one], the half-inhibitory concentration (IC50) was ≤ 0.05 µM in assay [1], ≤ 0.5 µM in the assay on Caov-3 cells and ≤ 0.5 µM in the assay on Kasumi-1 cells.
Regarding `CC(n1cc(-c2cncc(N3CC(C(F)F)C3)c2)nn1)n1ccc(N2CCC[C@@H](NCC3CC3)C2)cc1=O` (single isomer, unassigned) [Compound 209], the IC50 in assay [1] is ≤ 0.05 µM; in the assay with Caov-3 cells it was 0.5 to 5 µM; in the assay with Kasumi-1 cells, 0.5 to 5 µM.
In the case of `CC(c1ccc(N2CCC[C@@H](NCC3CC3)C2)cn1)c1nnc(-c2cncc(C3CC3)c2)s1` (stereo partly drawn) [Compound 359, (3R)—N-(cyclopropylmethyl)-1-(6-(1-(5-(5-cyclopropylpyridin-3-yl)-1,3,4-thiadiazol-2-yl)ethyl)pyridin-3-yl)piperidin-3-amine], the IC50 is ≤ 0.05 µM in assay [1], ≤ 0.5 µM in the assay with Caov-3 cells and ≤ 0.5 µM in the assay on Kasumi-1 cells.
`CC(n1cc(-c2cc(N3CCCC3)cnn2)nn1)n1ccc(N2CCC[C@@H](NCC3CC3)C2)cc1=O` (single isomer, unassigned) [Compound 206]: the IC50 in assay [1] was ≤ 0.05 µM; with Caov-3 cells, ≤ 0.5 µM; in the assay on Kasumi-1 cells, 0.5 to 5 µM.
For the compound `O=C(Nc1cncc(N2CCCC2)c1)C1(c2ccc(N3CCC[C@@H](NCC4CC4)C3)cn2)COC1` [Compound 195, (R)-3-(5-(3-((cyclopropylmethyl)amino)piperidin-1-yl)pyridin-2-yl)-N-(5-(pyrrolidin-1-yl)pyridin-3-yl)oxetane-3-carboxamide], the IC50 was ≤ 0.05 µM in assay [1], 0.5 to 5 µM in the assay on Caov-3 cells and 0.5 to 5 µM in the assay with Kasumi-1 cells.
`CC(c1ccc(N2CCC[C@@H](NCC3(C)CC3)C2)cn1)n1cnc(-c2cncc(N3CCCC3)n2)c1` (single isomer, unassigned) [Compound 365]: the figures for the IC50 (in assay [1]; in the assay with Caov-3 cells; in the assay with Kasumi-1 cells) were ≤ 0.05 µM, ≤ 0.5 µM and ≤ 0.5 µM, respectively.
As for `O=C(Nc1cc(=O)n2ccccc2n1)C1(c2ccc(N3CCC[C@@H](NCC45CC(F)(C4)C5)C3)cn2)COC1` [Compound 263, (R)-3-(5-(3-(((3-fluorobicyclo[1.1.1]pentan-1-yl)methyl)amino)piperidin-1-yl)pyridin-2-yl)-N-(4-oxo-4H-pyrido[1,2-a]pyrimidin-2-yl)oxetane-3-carboxamide], the IC50 was ≤ 0.05 µM in assay [1], ≤ 0.5 µM in the assay with Caov-3 cells and ≤ 0.5 µM in the assay with Kasumi-1 cells.
On to `COc1cncc(-c2cn(C(C)c3ccc(N4CCC[C@@H](NCC5CCC5)C4)cc3)cn2)c1` (single isomer, unassigned) [Compound 296], for which the IC50 in assay [1] is ≤ 0.05 µM; in the assay with Caov-3 cells, 0.5 to 5 µM; in the assay with Kasumi-1 cells, 0.5 to 5 µM.
Consider `CC(c1ccc(N2CCC[C@@H](NCC3CC3)C2)nn1)n1cc(-c2cncc(C3CC3)c2)nn1` (single isomer, unassigned) [Compound 317], for which the IC50 in assay [1] is ≤ 0.05 µM; in the assay on Caov-3 cells, ≤ 0.5 µM; in the assay on Kasumi-1 cells, ≤ 0.5 µM.
`COc1cc(-c2cn(Cc3ccc(N4CCCC(NCC56CC(C)(C5)C6)C4)nn3)nn2)c2cn[nH]c2c1` (stereo not drawn) [Compound 020, 1-(6-((4-(6-methoxy-1H-indazol-4-yl)-1H-1,2,3-triazol-1-yl)methyl)pyridazin-3-yl)-N-((3-methylbicyclo[1.1.1]pentan-1-yl)methyl)piperidin-3-amine]: the results for the IC50 (in assay [1]; in the assay on Caov-3 cells; with Kasumi-1 cells) were ≤ 0.05 µM, 0.5 to 5 µM and 0.5 to 5 µM, respectively.
